ChEMBL document CHEMBL5620362 (Eur J Med Chem, 2023)
Active and inactive are the calls of the source. No cut-off for these calls is given here.

Tests used:
[1] = AUClast in ICR mouse at 3 mg/kg, iv; type: ADME, organism-based; settings: in vivo
HEK-293T = assay: Cytotoxicity against HEK293T cells incubated for 72 hrs; type: toxicity, cell-based; settings: human
SW1573 = assay: Anticancer activity against human SW1573 cells incubated for 72 hrs; type: functional, cell-based
NCI-H23 [2] = assay: Induction of apoptosis in human NCI-H23 cells assessed as necrotic cells at 10 uM incubated for 48 hrs by Annexin V-FITC/PI staining based flow cytometry (reference value: 0.78 %); type: functional
NCI-H23 [3] = assay: Anticancer activity against human NCI-H23 cells incubated for 72 hrs; type: functional, cell-based
[4] = Half life in ICR mouse at 3 mg/kg, iv; type: ADME, organism-based; settings: in vivo
PANC-1 = assay: Anticancer activity against human PANC-1 cells incubated for 72 hrs; type: functional, cell-based
[5] = Toxicity in nude Balb/cA mouse xenografted with human HPAF-II cells assessed as body weight loss at 90 to 180 mg/kg, po qd measured for 12 days; type: organism-based; settings: in vivo, 288 h, dose 90-180 mg/kg, time 12 day
HPAF-II [6] = assay: Cytotoxicity against human HPAF-II cells harboring siROR-gamma assessed as decrease in cell viability at 0.1 uM incubated for 72 hrs by SRB assay; type: functional, cell-based
HPAF-II [7] = assay: Induction of apoptosis in human HPAF-II cells assessed as early apoptotic cells at 0.1 uM incubated for 48 hrs by Annexin V-FITC/PI staining based flow cytometry (reference value: 0.90 %); type: functional
HPAF-II [8] = assay: Induction of apoptosis in human HPAF-II cells assessed as late apoptotic cells at 10 uM incubated for 48 hrs by Annexin V-FITC/PI staining based flow cytometry (reference value: 1.28 %); type: functional
NCI-H23 [9] = assay: Induction of apoptosis in human NCI-H23 cells assessed as late apoptotic cells at 10 uM incubated for 48 hrs by Annexin V-FITC/PI staining based flow cytometry (reference value: 2.89 %); type: functional
[10] = Oral bioavailability in ICR mouse at 10 mg/kg; type: ADME, organism-based; settings: in vivo
NCI-H23 [11] = assay: Induction of apoptosis in human NCI-H23 cells assessed as viable cells at 0.01 uM incubated for 48 hrs by Annexin V-FITC/PI staining based flow cytometry (reference value: 92.16 %); type: functional; settings: read-out: Activity
HPAF-II [12] = assay: Induction of apoptosis in human HPAF-II cells harboring siROR-gamma at 0.1 uM incubated for 24 hrs by Annexin V-FITC/PI staining based flow cytometry; type: functional, cell-based
NCI-H23 [13] = assay: Induction of apoptosis in human NCI-H23 cells assessed as late apoptotic cells at 1 uM incubated for 48 hrs by Annexin V-FITC/PI staining based flow cytometry (reference value: 2.89 %); type: functional
HPAF-II [14] = assay: Induction of apoptosis in human HPAF-II cells assessed as viable cells at 0.01 uM incubated for 48 hrs by Annexin V-FITC/PI staining based flow cytometry (reference value: 89.73 %); type: functional; settings: read-out: Activity
NCI-H23 [15] = assay: Induction of apoptosis in human NCI-H23 cells assessed as viable cells at 10 uM incubated for 48 hrs by Annexin V-FITC/PI staining based flow cytometry (reference value: 92.16 %); type: functional; settings: read-out: Activity
MV4-11 = assay: Anticancer activity against human MV4-11 cells incubated for 72 hrs; type: functional, cell-based
[16] = Tmax in ICR mouse at 10 mg/kg, po; type: ADME, organism-based; settings: in vivo
HPAF-II [17] = assay: Downregulation of MEK phosphorylation level in human HPAF-II cells harboring siROR-gamma at 0.1 uM by Western blot analysis; type: functional, cell-based
NCI-H358 [18] = assay: Anticancer activity against human NCI-H358 cells incubated for 72 hrs; type: functional, cell-based
MIA PaCa-2 = assay: Anticancer activity against human MIA PaCa-2 cells incubated for 72 hrs; type: functional, cell-based
HPAF-II [19] = assay: Downregulation of AKT phosphorylation level in human HPAF-II cells harboring siROR-gamma at 0.1 uM by Western blot analysis; type: functional, cell-based
HPAF-II [20] = assay: Induction of apoptosis in human HPAF-II cells assessed as early apoptotic cells at 0.01 uM incubated for 48 hrs by Annexin V-FITC/PI staining based flow cytometry (reference value: 0.90 %); type: functional
[21] = Volume of distribution at steady state in ICR mouse at 3 mg/kg, iv; type: ADME, organism-based; settings: in vivo, read-out: Vdss
HPAF-II [22] = assay: Downregulation of phosphorylated MEK expression in human HPAF-II cells at 0.1 to 1 uM incubated for 48 hrs by Western blot analysis; type: functional, cell-based; settings: dose 0.1-1 µM
HPAF-II [23] = assay: Antitumor activity against human HPAF-II cells xenografted in nude Balb/cA mouse assessed as tumor growth inhibition at 180 mg/kg, po qd measured for 12 days relative to control; type: functional; set-up: scale not given: the % may be the effect or the level left; settings: time 12 day
[24] = MRT (infinity) in ICR mouse at 3 mg/kg, iv; type: ADME, organism-based; settings: in vivo
HPAF-II [25] = assay: Induction of apoptosis in human HPAF-II cells assessed as viable cells at 10 uM incubated for 48 hrs by Annexin V-FITC/PI staining based flow cytometry (reference value: 89.73 %); type: functional; settings: read-out: Activity
HPAF-II [26] = assay: Induction of apoptosis in human HPAF-II cells assessed as reduction in MCL-1 level at 0.1 to 1 uM incubated for 48 hrs by Western blot analysis; type: functional, cell-based; settings: dose 0.1-1 µM
NCI-H358 [27] = assay: Induction of apoptosis in human NCI-H358 cells 1 uM incubated for 48 hrs by Annexin V-FITC/PI staining based flow cytometry; type: functional, cell-based
HPAF-II [28] = assay: Induction of apoptosis in human HPAF-II cells assessed as viable cells at 1 uM incubated for 48 hrs by Annexin V-FITC/PI staining based flow cytometry (reference value: 89.73 %); type: functional; settings: read-out: Activity
HPAF-II [29] = assay: Induction of apoptosis in human HPAF-II cells assessed as necrotic cells at 10 uM incubated for 48 hrs by Annexin V-FITC/PI staining based flow cytometry (reference value: 8.09 %); type: functional
HPAF-II [30] = assay: Induction of apoptosis in human HPAF-II cells assessed as necrotic cells at 0.01 uM incubated for 48 hrs by Annexin V-FITC/PI staining based flow cytometry (reference value: 8.09 %); type: functional
HPAF-II [31] = assay: Induction of apoptosis in human HPAF-II cells assessed as necrotic cells at 1 uM incubated for 48 hrs by Annexin V-FITC/PI staining based flow cytometry (reference value: 8.09 %); type: functional
NCI-H23 [32] = assay: Induction of apoptosis in human NCI-H23 cells assessed as early apoptotic cells at 0.01 uM incubated for 48 hrs by Annexin V-FITC/PI staining based flow cytometry (reference value: 4.17 %); type: functional
[33] = Toxicity in nude Balb/cA mouse xenografted with human HPAF-II cells assessed as redness at injection site at 15 mg/kg, ip qd measured for 12 days; type: organism-based; settings: in vivo, 288 h, time 12 day
NCI-H1373 = assay: Anticancer activity against human NCI-H1373 cells incubated for 72 hrs; type: functional, cell-based
HPAF-II [34] = assay: Inhibition of colony formation in human HPAF-II cells harboring siROR-gamma 0.1 uM incubated for 6 to 7 days by crystal violet staining based analysis; type: functional, cell-based; settings: time 6-7 day
HPAF-II [35] = assay: Induction of apoptosis in human HPAF-II cells assessed as late apoptotic cells at 0.1 uM incubated for 48 hrs by Annexin V-FITC/PI staining based flow cytometry (reference value: 1.28 %); type: functional

For C=C(C)[C@@H]1CC[C@]2(C(=O)NCCCN(C)C)CC[C@]3(C)[C@H](CC[C@@H]4[C@@]5(C)CC[C@H](O)C(C)(C)[C@@H]5CC[C@]43C)[C@@H]12, the AUC(0-t) [1] was 2980 ng·h/mL, the Activity (HEK-293T) was “Non-Toxic” and the Activity (SW1573) was “Active”. For the same compound, the Activity (NCI-H23 [2]) was 0.61%, the Activity (NCI-H23 [3]) was “Active” and the half-life [4] was 4.5 h. The Activity (PANC-1) was “Active”, the Activity [5] was “Non-Toxic” and the Activity (HPAF-II [6]) was “inactive”. The Activity (HPAF-II [7]) was 23.73%, the Activity (HPAF-II [8]) was 42.77% and the Activity (NCI-H23 [9]) was 28.83%. The bioavailability [10] was 16.8%, the viability at 0.01 µM (NCI-H23 [11]) was 86.3% and the Activity (HPAF-II [12]) was “inactive”. It also gave an Activity (NCI-H23 [13]) of 18.15%, a viability at 0.01 µM (HPAF-II [14]) of 82.6% and a viability at 10 µM (NCI-H23 [15]) of 6.54%. The Activity (MV4-11) was “Active”, the Tmax [16] was 2 h and the Activity (HPAF-II [17]) was “Active”. The Activity (NCI-H358 [18]) was “Active”, the Activity (MIA PaCa-2) was “Active” and the Activity (HPAF-II [19]) was “Active”. The Activity (HPAF-II [20]) was 5.34%, the Vd [21] was 5.21 L/kg and the Activity (HPAF-II [22]) was “Active”. It also gave an Activity (HPAF-II [23]) of 49%, an MRT inf [24] of 5.22 h and a viability at 10 µM (HPAF-II [25]) of 5.04%. For the same compound, the Activity (HPAF-II [26]) was “Active”, the Activity (NCI-H358 [27]) was “Active” and the viability at 1 µM (HPAF-II [28]) was 38.2%. The Activity (HPAF-II [29]) was 3.33%, the Activity (HPAF-II [30]) was 7.52% and the Activity (HPAF-II [31]) was 2.06%. For the same compound, the Activity (NCI-H23 [32]) was 4.06%, the Activity [33] was “Toxic” and the Activity (NCI-H1373) was “Active”. For the same compound, the inhibition (HPAF-II [34]) was “inactive” and the Activity (HPAF-II [35]) was 12.13%.
